BindingDB's records for doi:10.1124/jpet.102.040394 (Merck Sharp and Dohme Research Laboratories, 2002)
pKi: −log10 of the molar value.

Tests used:
[1] = molecular target: Transient receptor potential cation channel subfamily V member 1 (Homo sapiens, UniProt Q8NER1)
[2] = molecular target: Transient receptor potential cation channel subfamily V member 1 (Rattus norvegicus, UniProt O35433)
Transient receptor potential cation channel subfamily V member 1 (Rattus norvegicus, UniProt O35433), sequence (O35433 whole entry): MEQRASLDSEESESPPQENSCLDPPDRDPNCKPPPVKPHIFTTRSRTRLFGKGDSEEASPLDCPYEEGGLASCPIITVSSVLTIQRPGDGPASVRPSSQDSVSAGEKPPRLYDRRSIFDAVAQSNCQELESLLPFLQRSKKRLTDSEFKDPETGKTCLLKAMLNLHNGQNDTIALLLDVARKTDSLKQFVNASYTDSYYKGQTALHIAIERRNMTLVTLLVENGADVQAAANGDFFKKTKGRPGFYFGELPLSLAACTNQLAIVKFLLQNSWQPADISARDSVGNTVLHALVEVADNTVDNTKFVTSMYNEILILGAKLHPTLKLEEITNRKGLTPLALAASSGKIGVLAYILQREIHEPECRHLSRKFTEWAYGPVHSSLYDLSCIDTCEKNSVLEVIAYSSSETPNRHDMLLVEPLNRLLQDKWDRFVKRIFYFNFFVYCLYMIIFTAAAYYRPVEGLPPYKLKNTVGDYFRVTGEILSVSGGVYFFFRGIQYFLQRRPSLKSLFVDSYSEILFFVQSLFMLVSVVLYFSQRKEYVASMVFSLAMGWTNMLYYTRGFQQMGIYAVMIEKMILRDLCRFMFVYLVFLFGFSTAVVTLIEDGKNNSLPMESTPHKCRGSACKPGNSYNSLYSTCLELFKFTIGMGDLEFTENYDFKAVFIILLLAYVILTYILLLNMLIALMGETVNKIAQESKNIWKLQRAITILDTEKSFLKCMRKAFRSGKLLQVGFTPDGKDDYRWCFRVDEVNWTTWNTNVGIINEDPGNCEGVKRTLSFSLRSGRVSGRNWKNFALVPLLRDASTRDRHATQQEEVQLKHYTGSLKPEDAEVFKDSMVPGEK

Transient receptor potential cation channel subfamily V member 1 (Homo sapiens, UniProt Q8NER1), sequence (Q8NER1 whole entry): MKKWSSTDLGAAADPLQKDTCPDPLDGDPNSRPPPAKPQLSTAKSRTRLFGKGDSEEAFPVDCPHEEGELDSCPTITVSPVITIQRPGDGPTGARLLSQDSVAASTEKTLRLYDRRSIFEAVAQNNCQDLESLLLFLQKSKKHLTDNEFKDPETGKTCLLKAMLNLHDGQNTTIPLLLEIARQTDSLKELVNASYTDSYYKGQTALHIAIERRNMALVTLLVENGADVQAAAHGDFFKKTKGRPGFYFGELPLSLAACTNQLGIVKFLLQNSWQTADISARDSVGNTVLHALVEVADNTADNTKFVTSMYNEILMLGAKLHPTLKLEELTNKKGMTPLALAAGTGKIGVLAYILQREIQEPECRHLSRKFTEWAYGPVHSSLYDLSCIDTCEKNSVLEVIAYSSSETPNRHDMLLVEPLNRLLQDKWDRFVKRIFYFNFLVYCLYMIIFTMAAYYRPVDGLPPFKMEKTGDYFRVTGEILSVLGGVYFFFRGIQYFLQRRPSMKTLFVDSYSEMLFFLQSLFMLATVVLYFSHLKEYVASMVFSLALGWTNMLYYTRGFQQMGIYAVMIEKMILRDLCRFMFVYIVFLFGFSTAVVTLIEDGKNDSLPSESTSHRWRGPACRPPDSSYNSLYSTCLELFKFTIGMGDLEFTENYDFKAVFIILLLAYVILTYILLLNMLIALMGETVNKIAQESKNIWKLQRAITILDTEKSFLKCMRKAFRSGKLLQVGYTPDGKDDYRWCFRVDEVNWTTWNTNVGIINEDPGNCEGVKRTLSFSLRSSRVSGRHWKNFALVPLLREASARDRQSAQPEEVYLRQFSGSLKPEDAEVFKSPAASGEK

How did the pKi [1] turn out when `C=C(C)[C@]12C[C@@H](C)[C@@]34O[C@](Cc5ccccc5)(O[C@@H]1[C@@H]3C(COC(=O)Cc1cc(I)c(O)c(OC)c1)=CC[C@@H]1C(=O)C(C)=C[C@H]14)O2` [5'-IODORESINIFERATOXIN] was run?
The pKi was 8.17.

And the pKi [2]?
The pKi was 9.41.

How did the pKi [2] turn out when `Oc1cc2c(cc1O)CN(C(=S)NCCc1ccc(Cl)cc1)CCC2` [N-[2-(4-chlorophenyl)ethyl]-7,8-dihydroxy-2,3,4,5-tetrahydro-1H-2-benzazepine-2-carbothioamide] was run?
Its pKi is 5.37.
